Measurements taken from the NIST ThermoML archive (doi:10.1016/j.tca.2004.11.013).
Numbers after ± are expanded uncertainties.

Tests used:
[1] = for viscosity: 298 K, moving piston; for viscosity / thermal conductivity / mass density: 101.33 kPa, Liquid; for thermal conductivity: hot wire; for mass density: 333.1 K, Vibrating tube method; for Normal melting temperature: Crystal
[2] = Molar enthalpy of transition or fusion; conditions: Crystal; DSC
[3] = molar heat capacity at constant pressure; conditions: 101.33 kPa, Liquid, Small sample (50 mg) DSC

CCC[n+]1ccn(C)c1C.O=S(=O)([N-]S(=O)(=O)C(F)(F)F)C(F)(F)F
Conditions	Molar enthalpy of transition or fusion [kcal/mol]	mass density [kg/m3]	viscosity [mPa·s]
[1]	–	1420.5 ± 0.8	90.05 ± 2.7
[2]	4.71 ± 1.91	–	–

Conditions	Normal melting temperature [°C]	molar heat capacity at constant pressure [J/K/mol]	thermal conductivity [W/m/K]
[1], 300 K	–	–	0.13 ± 0.005
[1], 310 K	–	–	0.13 ± 0.005
[1], 320 K	–	–	0.129 ± 0.005
[1], 330 K	–	–	0.129 ± 0.005
[1], 340 K	–	–	0.128 ± 0.005
[1], 350 K	–	–	0.128 ± 0.005
[1], 360 K	–	–	0.127 ± 0.005
[1], 370 K	–	–	0.127 ± 0.005
[1], 380 K	–	–	0.126 ± 0.005
[1], 390 K	–	–	0.126 ± 0.005
[1], DTA	11.29 ± 2.6	–	–
[3], 323.15 K	–	473.46 ± 190	–
[3], 348.15 K	–	487.72 ± 200	–
[3], 373.15 K	–	501.98 ± 200	–
[3], 398.15 K	–	515.4 ± 210	–
[3], 423.15 K	–	528.4 ± 210	–
[3], 448.15 K	–	540.98 ± 220	–
[3], 473.15 K	–	553.14 ± 220	–
[3], 498.15 K	–	564.47 ± 230	–
[3], 523.15 K	–	575.79 ± 230	–
[3], 548.15 K	–	586.69 ± 230	–
[3], 573.15 K	–	597.18 ± 240	–
[3], 598.15 K	–	607.24 ± 240	–
[3], 623.15 K	–	616.89 ± 250	–
[3], 663.15 K	–	631.15 ± 250	–

CCCCn1cc[n+](C)c1.F[B-](F)(F)F [1-butyl-3-methylimidazolium tetrafluoroborate]
[1]
Conditions	mass density [kg/m3]	viscosity [mPa·s]
–	1174.7 ± 0.7	119.78 ± 4.1

Conditions	molar heat capacity at constant pressure [J/K/mol]	thermal conductivity [W/m/K]
[1], 300 K	–	0.186 ± 0.006
[1], 310 K	–	0.185 ± 0.006
[1], 320 K	–	0.184 ± 0.006
[1], 330 K	–	0.184 ± 0.006
[1], 340 K	–	0.183 ± 0.006
[1], 350 K	–	0.183 ± 0.006
[1], 360 K	–	0.182 ± 0.006
[1], 370 K	–	0.181 ± 0.006
[1], 380 K	–	0.181 ± 0.006
[1], 390 K	–	0.18 ± 0.006
[3], 223.15 K	268.74 ± 110	–
[3], 248.15 K	289.54 ± 120	–
[3], 273.15 K	308.75 ± 120	–
[3], 298.15 K	326.15 ± 130	–
[3], 323.15 K	341.75 ± 140	–
[3], 348.15 K	355.76 ± 140	–
[3], 373.15 K	367.74 ± 150	–
[3], 398.15 K	378.36 ± 150	–
[3], 423.15 K	386.95 ± 150	–
[3], 448.15 K	393.96 ± 160	–
[3], 473.15 K	399.16 ± 160	–
[3], 498.15 K	402.77 ± 160	–
[3], 523.15 K	404.35 ± 160	–
[3], 548.15 K	404.35 ± 160	–
[3], 573.15 K	402.77 ± 160	–

Conditions	Glass transition temperature [°C]
[1], Glass, DTA	-87.38 ± 2.6

CCn1cc[n+](C)c1.F[B-](F)(F)F [1-ethyl-3-methylimidazolium tetrafluoroborate]
Conditions	Molar enthalpy of transition or fusion [kcal/mol]	mass density [kg/m3]	viscosity [mPa·s]
[1]	–	1252.6 ± 0.8	36.07 ± 0.75
[2]	2.28 ± 0.908	–	–

Conditions	Normal melting temperature [°C]	molar heat capacity at constant pressure [J/K/mol]	thermal conductivity [W/m/K]
[1], 300 K	–	–	0.199 ± 0.006
[1], 310 K	–	–	0.197 ± 0.006
[1], 320 K	–	–	0.196 ± 0.006
[1], 330 K	–	–	0.195 ± 0.006
[1], 340 K	–	–	0.194 ± 0.006
[1], 350 K	–	–	0.193 ± 0.006
[1], 360 K	–	–	0.191 ± 0.006
[1], 370 K	–	–	0.19 ± 0.006
[1], 380 K	–	–	0.189 ± 0.006
[1], 390 K	–	–	0.188 ± 0.006
[1], DTA	14.42 ± 1.1	–	–
[3], 273.15 K	–	244.49 ± 98	–
[3], 293.15 K	–	250.04 ± 100	–
[3], 313.15 K	–	254 ± 100	–
[3], 333.15 K	–	256.77 ± 100	–
[3], 353.15 K	–	258.15 ± 100	–
[3], 373.15 K	–	257.95 ± 100	–
[3], 393.15 K	–	256.57 ± 100	–
[3], 403.15 K	–	255.18 ± 100	–
